From PubChem BioAssay AID1963865 (Molecular Pharmacology Branch, DTP, NCI, 2024)
pIC50: −log10 of the molar value.

System: KRAS PDC multicell spheroid viability
Assay: Anticancer human tumor 825966-067-R-J1-PDC patient-derived colon carcinoma cell line growth inhibition [KRAS2]
Conditions: for pIC50: curve of first compound; for viability, T/C: stronger effect = lower value
Description: Multicellular complex tumor spheroid response to RAS pathway inhibitors in combination with a targeted agents in patient-derived cell lines with oncogenic KRAS variants from multiple cancer types
A high-throughput screen of multi-cell type tumor spheroids was designed to identify active combinations of targeted small molecules and KRAS pathway inhibitors. Complex spheroids include a stromal component modeled by human endothelial cells (HUVEC) and fibroblasts modeled by human mesenchymal stem cells (MSCs). The concentration ranges selected for each drug and investigational agent were based upon clinically achievable concentrations if the clinical Cmax of the agent was known.
Compounds. The drugs and investigational agents: BI-3406 (NSC825286), BAY-293 (NSC824723), batoprotafib (TNO155; NSC825523), sotorasib (AMG 510; NSC818433), MRTX1257 (NSC819558), elimusertib (BAY 1895344; NSC800525), molibresib (GSK525762; NSC774829), temuterkib (LY3214996; NSC803410), venetoclax (NSC766270), alisertib (NSC759677), olaparib (NSC753686), talazoparib (NSC767125), erdafitinib (NSC781556), ipatasertib (NSC767898), cabozantinib (NSC761068), nintedanib (NSC756659), abemaciclib (NSC768073), docetaxel (NSC628503), trametinib (NSC758246), and sapanisertib (NSC764658) were obtained from the National Cancer Institute (NCI) Developmental Therapeutics Program Chemical Repository. The FDA-approved anticancer drug set is available from the Developmental Therapeutics Program. […] The stock solutions were prepared in dimethyl sulfoxide (DMSO, Sigma-Aldrich, St. Louis, MO, cat. D2650) at 800-fold the tested concentration and stored at -70 degrees C prior to their use. All drugs and investigational agents were tested over a range starting from a high concentration at or near the clinical Cmax and decreasing in half-log increments. If the clinical Cmax for an agent had not been determined, the highest concentration tested was 10 microM.
Cell Culture. All cells were maintained in an incubator at 37 degrees C and 5% CO2 with 95% humidity. The PDC lines were cultured according to standard operating procedures established by the NCI PDMR (https://pdmr.cancer.gov/sops/default.htm). Briefly, all PDCs were thawed and cultured in Matrigel-coated flasks prepared with a working solution of 1X Ham's F-12 nutrient mix, without supplementation (Invitrogen, Waltham, MA, cat. 11765054), 100 U/mL penicillin-streptomycin (Invitrogen, cat. 15140122), and 2.5% Matrigel (Corning Inc., Corning, NY, cat. 354248) for the first three passages. All PDCs were cultured in complete DMEM/F-12 media containing advanced DMEM/F-12 (Invitrogen, cat. 12634028), 4.9% defined fetal bovine serum, heat inactivated (HyClone Laboratories Inc., Logan, UT, cat. SH30070.03HI), 389 ng/mL hydrocortisone (Sigma-Aldrich, cat. H4001), 9.7 ng/mL human EGF recombinant protein (Invitrogen, cat. PHG0313), 23.4 microg/mL adenine (Sigma-Aldrich, cat. A2786), 97.3 U/mL penicillin-streptomycin (Invitrogen, cat. 15140122), 1.9 mM L-glutamine (Invitrogen, cat. 25030081), and 9.7 microM Y-27632 dihydrochloride (Tocris Bioscience, Bristol, United Kingdom, cat. 1254). The PDCs were cultured in complete DMEM/F12 media without 9.7 microM Y-27632 dihydrochloride for at least two passages prior to the screen. The established cell line HOP-62 was cultured in RPMI 1640 medium, HEPES (Invitrogen, cat. 22400105) with 10% defined fetal bovine serum (HyClone Laboratories Inc., cat. SH30070.03) and 2 mM L-glutamine (Invitrogen, cat. 25030081). The pooled donor HUVEC were cultured in endothelial cell growth medium 2 (PromoCell, Heidelberg, Germany, cat. C-22011) and the hMSC were cultured in mesenchymal stem cell growth medium 2 (PromoCell, cat. C-28009). For all experiments, HUVEC and hMSC were used at passages </=5, while the malignant cell lines were used at passages </=15. […]

[1] = second compound 0.1 µM, first compound 0.0316 µM
[2] = second compound 0.1 µM, first compound 0.1 µM
[3] = second compound 0.1 µM, first compound 0.316 µM
[4] = second compound 0.1 µM, first compound 1 µM
[5] = second compound 0.316 µM, first compound 0.0316 µM
[6] = second compound 0.316 µM, first compound 0.1 µM
[7] = second compound 0.316 µM, first compound 0.316 µM
[8] = second compound 0.316 µM, first compound 1 µM
[9] = second compound 1 µM, first compound 0.0316 µM
[10] = second compound 1 µM, first compound 0.1 µM
[11] = second compound 1 µM, first compound 0.316 µM
[12] = second compound 1 µM, first compound 1 µM
[13] = second compound 3.16 µM, first compound 0.0316 µM
[14] = second compound 3.16 µM, first compound 0.1 µM
[15] = second compound 3.16 µM, first compound 0.316 µM
[16] = second compound 3.16 µM, first compound 1 µM
[17] = second compound 10 µM, first compound 0.0316 µM
[18] = second compound 10 µM, first compound 0.1 µM
[19] = second compound 10 µM, first compound 0.316 µM
[20] = second compound 10 µM, first compound 1 µM
[21] = second compound 0.1 µM, first compound 0.00316 µM
[22] = second compound 0.1 µM, first compound 0.01 µM
[23] = second compound 0.316 µM, first compound 0.00316 µM
[24] = second compound 0.316 µM, first compound 0.01 µM
[25] = second compound 1 µM, first compound 0.00316 µM
[26] = second compound 1 µM, first compound 0.01 µM
[27] = second compound 3.16 µM, first compound 0.00316 µM
[28] = second compound 3.16 µM, first compound 0.01 µM
[29] = second compound 10 µM, first compound 0.00316 µM
[30] = second compound 10 µM, first compound 0.01 µM
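Further: spheroids exposed to compounds for 7 days.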
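Wherever viability, T/C is given: 100% = DMSO vehicle control viability.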

SMILES | pIC50 (second compound 0.1 µM) | pIC50 (second compound 0.316 µM) | pIC50 (second compound 1 µM) | pIC50 (second compound 3.16 µM) | pIC50 (second compound 10 µM) | viability, T/C [1] [%] | viability, T/C [2] [%] | viability, T/C [3] [%] | viability, T/C [4] [%] | viability, T/C [5] [%] | viability, T/C [6] [%] | viability, T/C [7] [%] | viability, T/C [8] [%] | viability, T/C [9] [%] | viability, T/C [10] [%] | viability, T/C [11] [%] | viability, T/C [13] [%] | viability, T/C [14] [%] | viability, T/C [17] [%] | viability, T/C [18] [%] | other results
CC(C)NCC(C(=O)N1CCN(c2ncnc3c2C(C)CC3O)CC1)c1ccc(Cl)cc1 (stereo not given) + C=CC(=O)N1CCN(c2nc(=O)n(-c3c(C)ccnc3C(C)C)c3nc(-c4c(O)cccc4F)c(F)cc23)C(C)C1 | 5.64 | 5.79 | 5.83 | 5.80 | 6.63 | 105 | 139 | 155 | 93.6 | 104 | 127 | 136 | 73.7 | 88.7 | 121 | 120 | 97.2 | 130 | 76.2 | 150 | viability, T/C (second compound 0.1 µM, first compound 3.16 µM): 35.2%; viability, T/C (second compound 0.1 µM, first compound 10 µM): 10.4%; viability, T/C (second compound 0.316 µM, first compound 3.16 µM): 26.6%; viability, T/C (second compound 0.316 µM, first compound 10 µM): 10.6%; viability, T/C [12]: 69%; viability, T/C (second compound 1 µM, first compound 3.16 µM): 16.9%; viability, T/C (second compound 1 µM, first compound 10 µM): 6.64%; viability, T/C [15]: 110%; viability, T/C [16]: 68.5%; viability, T/C (second compound 3.16 µM, first compound 3.16 µM): 23.6%; viability, T/C (second compound 3.16 µM, first compound 10 µM): 9.85%; viability, T/C [19]: 27.9%; viability, T/C [20]: 14.5%; viability, T/C (second compound 10 µM, first compound 3.16 µM): 6.65%; viability, T/C (second compound 10 µM, first compound 10 µM): 2.19%
CCN1CCN(Cc2ccc(Nc3ncc(F)c(-c4cc(F)c5nc(C)n(C(C)C)c5c4)n3)nc2)CC1 + C=CC(=O)N1CCN(c2nc(=O)n(-c3c(C)ccnc3C(C)C)c3nc(-c4c(O)cccc4F)c(F)cc23)C(C)C1 | < 6.00 | < 6.00 | < 6.00 | < 6.00 | 6.13 | 101 | 96.3 | 143 | 119 | 112 | 118 | 153 | 111 | 102 | 114 | 163 | 126 | 121 | 100 | 143 | viability, T/C [21]: 90%; viability, T/C [22]: 107%; viability, T/C [23]: 80.8%; viability, T/C [24]: 85.9%; viability, T/C [25]: 87.3%; viability, T/C [26]: 84.8%; viability, T/C [12]: 83%; viability, T/C [27]: 89.5%; viability, T/C [28]: 92.4%; viability, T/C [15]: 155%; viability, T/C [16]: 76.8%; viability, T/C [29]: 104%; viability, T/C [30]: 102%; viability, T/C [19]: 117%; viability, T/C [20]: 27.9%
Cn1ncnc1[C@H]1c2n[nH]c(=O)c3cc(F)cc(c23)N[C@@H]1c1ccc(F)cc1 + C=CC(=O)N1CCN(c2nc(=O)n(-c3c(C)ccnc3C(C)C)c3nc(-c4c(O)cccc4F)c(F)cc23)C(C)C1 | < 7.00 | < 7.00 | < 7.00 | < 7.00 | < 7.00 | 90.1 | 82.3 | – | – | 90.7 | 72.3 | – | – | 102 | 80.6 | – | 72 | 87.7 | 115 | 76.9 | viability, T/C (second compound 0.1 µM, first compound 0.000316 µM): 132%; viability, T/C (second compound 0.1 µM, first compound 0.001 µM): 100%; viability, T/C [21]: 98.2%; viability, T/C [22]: 89.6%; viability, T/C (second compound 0.316 µM, first compound 0.000316 µM): 100%; viability, T/C (second compound 0.316 µM, first compound 0.001 µM): 99.9%; viability, T/C [23]: 143%; viability, T/C [24]: 103%; viability, T/C (second compound 1 µM, first compound 0.000316 µM): 100%; viability, T/C (second compound 1 µM, first compound 0.001 µM): 91.7%; viability, T/C [25]: 75.2%; viability, T/C [26]: 79.3%; viability, T/C (second compound 3.16 µM, first compound 0.000316 µM): 109%; viability, T/C (second compound 3.16 µM, first compound 0.001 µM): 102%; viability, T/C [27]: 101%; viability, T/C [28]: 98.3%; viability, T/C (second compound 10 µM, first compound 0.000316 µM): 92.4%; viability, T/C (second compound 10 µM, first compound 0.001 µM): 124%; viability, T/C [29]: 93.2%; viability, T/C [30]: 111%
